Measured values published in ChEMBL document CHEMBL6182832, “Design and synthesis of coumarin-based amphoteric antimicrobials with biofilm interference and immunoregulation effects” (RSC Med Chem, 2025).
≈ marks a conversion by molar mass, not a printed value. Calls of active or inactive are those of the source. No cut-off for these calls is given here.

Tests used:
Staphylococcus aureus [1] = assay: Resistance index, ratio of MIC100 for antibacterial activity against clinically isolated Staphylococcus aureus ATCC29213 assessed as inhibition of bacterial growth at 1/2 times of MIC measured after 24 consecutive passages to MIC100 for antibacterial activity against clinically isolated Staphylococcus aureus ATCC29213; type: functional
Staphylococcus aureus [2] = assay: Antibacterial activity against clinically isolated methicillin-resistant Staphylococcus aureus assessed as inhibition of bacterial growth measured after 16 to 24 hrs by broth microdilution method; type: functional; conditions: time 16-24 hrs, read-out: MIC100
Staphylococcus aureus [3] = assay: Antibacterial activity against clinically isolated Staphylococcus aureus ATCC29213 assessed as inhibition of bacterial growth at 2 times of MIC measured after 18 hrs by broth microdilution method; type: functional
Enterococcus faecalis = assay: Antibacterial activity against clinically isolated Enterococcus faecalis ATCC29212 assessed as inhibition of bacterial growth measured after 16 to 24 hrs by broth microdilution method; type: functional; conditions: time 16-24 hrs, read-out: MIC100
Staphylococcus aureus [4] = assay: Anti-biofilm activity against clinically isolated Staphylococcus aureus ATCC29213 assessed inhibition of biofilm formation at 0.5 to 128 ug/ml measured after 12 to 16 hrs incubation by crystal violet staining based analysis; type: functional, organism-based; conditions: dose 0.5-128 µg/ml, time 12-16 hrs
[5] = In vivo toxicity in KM mouse assessed as hematocrit (HCT) in blood collected from eyes of mouse at 15 mg/kg, sc; type: organism-based
RAW264.7 = assay: Anti-inflammatory activity against mouse RAW264.7 cells assessed as inhibition LPS-stimulated NO production 0.5 to 4 ug/ml measured after 24 hrs by NO assay kit; type: functional, cell-based; conditions: dose 0.5-4 µg/ml
[6] = In vivo toxicity in KM mouse assessed as survival rate at 40 mg/kg, sc relative to control; type: organism-based
[7] = In vivo toxicity in KM mouse assessed as survival rate at 10 mg/kg, sc relative to control; type: organism-based
Escherichia coli [8] = assay: Biofilm eradication activity against Escherichia coli DE17 assessed biofilm scavenging at 8 ug/ml measured after 12 to 16 hrs incubation by crystal violet staining based analysis; type: functional, organism-based; conditions: dose 8.0 µg/ml, time 12-16 hrs
Staphylococcus aureus [9] = assay: In vivo antibacterial activity against clinically isolated Staphylococcus aureus ATCC29213 infected KM mouse skin abscess model assessed as decrease in bacterial load in skin at 5 mg/kg, sc measured after 24 hrs by Hematoxylin and Eosin staining based analysis; type: functional, organism-based
[10] = In vivo toxicity in KM mouse assessed as platelet count (PLT) in blood collected from eyes of mouse at 15 mg/kg, sc; type: organism-based
Staphylococcus aureus [11] = assay: In vivo antibacterial activity against clinically isolated Staphylococcus aureus ATCC29213 infected KM mouse skin abscess model assessed as reduction in size of abscess in dorsal skin and intradermal tissue at 5 mg/kg, sc measured after 24 hrs by Hematoxylin and Eosin staining based analysis; type: functional, organism-based
[12] = Hemolytic activity in rabbit erythrocytes assessed as hemolysis at >8 ug/ml; type: toxicity, cell-based, Oryctolagus cuniculus; conditions: erythrocyte, dose > 8 µg/ml
Bacillus subtilis = assay: Antibacterial activity against clinically isolated Bacillus subtilis ATCC6633 assessed as inhibition of bacterial growth measured after 16 to 24 hrs by broth microdilution method; type: functional; conditions: time 16-24 hrs, read-out: MIC100
Escherichia coli [13] = assay: Antibacterial activity against clinically isolated Escherichia coli ATCC25922 assessed as inhibition of bacterial growth measured after 16 to 24 hrs by broth microdilution method; type: functional; conditions: time 16-24 hrs, read-out: MIC100
Staphylococcus aureus [14] = assay: Antibacterial activity against clinically isolated Staphylococcus aureus ATCC29213 assessed as inhibition of bacterial growth at 1/2 times of MIC measured after 24 consecutive passages by broth microdilution method; type: functional, organism-based
[15] = In vivo toxicity in KM mouse assessed as mean corpuscular volume (MCV) in blood collected from eyes of mouse at 15 mg/kg, sc; type: organism-based
[16] = In vivo toxicity in KM mouse assessed as white blood cells (WBC) in blood collected from eyes of mouse at 15 mg/kg, sc; type: organism-based
Staphylococcus aureus [17] = assay: Antibacterial activity against clinically isolated Staphylococcus aureus ATCC29213 assessed as inhibition of bacterial growth measured after 16 to 24 hrs by broth microdilution method; type: functional; conditions: time 16-24 hrs, read-out: MIC100
[18] = In vivo toxicity in KM mouse assessed as hemoglobin (HGB) in blood collected from eyes of mouse at 15 mg/kg, sc; type: organism-based
[19] = In vivo toxicity in KM mouse assessed as survival rate at 5 mg/kg, sc relative to control; type: organism-based
[20] = In vivo toxicity in KM mouse assessed as albumin (ALB) in blood collected from eyes of mouse at 15 mg/kg, sc; type: organism-based
Staphylococcus aureus [21] = assay: In vivo antibacterial activity against clinically isolated Staphylococcus aureus ATCC29213 infected KM mouse skin abscess model assessed as aggregation of inflammatory cells into epidermis and dermis of skin at 5 mg/kg, sc measured after 24 hrs by Hematoxylin and Eosin staining based analysis; type: functional, organism-based
Staphylococcus aureus [22] = assay: Anti-biofilm activity against clinically isolated Staphylococcus aureus ATCC29213 assessed inhibition of biofilm formation at 4 ug/ml measured after 12 to 16 hrs incubation by crystal violet staining based analysis; type: functional; conditions: time 12-16 hrs
[23] = In vivo toxicity in KM mouse assessed as survival rate at 15 mg/kg, sc relative to control; type: organism-based
Bacillus cereus = assay: Antibacterial activity against clinically isolated Bacillus cereus CMCC63303 assessed as inhibition of bacterial growth measured after 16 to 24 hrs by broth microdilution method; type: functional; conditions: time 16-24 hrs, read-out: MIC100
Escherichia coli [24] = assay: Anti-biofilm activity against clinically isolated Escherichia coli DE17 assessed inhibition of biofilm formation at 0.5 to 128 ug/ml measured after 12 to 16 hrs incubation by crystal violet staining based analysis; type: functional, organism-based; conditions: dose 0.5-128 µg/ml, time 12-16 hrs
Staphylococcus aureus [25] = assay: Biofilm eradication activity against Staphylococcus aureus ATCC29213 assessed biofilm scavenging at 2 ug/ml measured after 12 to 16 hrs incubation by crystal violet staining based analysis; type: functional, organism-based; conditions: dose 2.0 µg/ml, time 12-16 hrs
Escherichia coli [26] = assay: Antibacterial activity against clinically isolated Escherichia coli DE17 assessed as inhibition of bacterial growth measured after 16 to 24 hrs by broth microdilution method; type: functional; conditions: time 16-24 hrs, read-out: MIC100
[27] = In vivo toxicity in KM mouse assessed as red blood cells (RBC) in blood collected from eyes of mouse at 15 mg/kg, sc; type: organism-based
[28] = In vivo toxicity in KM mouse assessed as urea (UREA) in blood collected from eyes of mouse at 15 mg/kg, sc; type: organism-based
[29] = In vivo toxicity in KM mouse assessed as creatinine (CREA) in blood collected from eyes of mouse at 15 mg/kg, sc; type: organism-based
Escherichia coli [30] = assay: Anti-biofilm activity against clinically isolated Escherichia coli DE17 assessed inhibition of biofilm formation at 16 ug/ml measured after 12 to 16 hrs incubation by crystal violet staining based analysis; type: functional; conditions: time 12-16 hrs
Escherichia coli [31] = assay: Anti-biofilm activity against clinically isolated Escherichia coli DE17 assessed inhibition of biofilm formation at 8 ug/ml measured after 12 to 16 hrs incubation by crystal violet staining based analysis; type: functional; conditions: time 12-16 hrs
Staphylococcus aureus [32] = assay: In vivo antibacterial activity against clinically isolated Staphylococcus aureus ATCC29213 infected KM mouse skin abscess model assessed as decrease in bacterial survival in skin at 5 mg/kg, sc measured after 24 hrs by Hematoxylin and Eosin staining based analysis; type: functional, organism-based
[33] = In vivo toxicity in KM mouse assessed as survival rate at 20 mg/kg, sc relative to control; type: organism-based
[34] = In vivo toxicity in KM mouse assessed as redness and swelling skin at site of compound administration at 20 to 40 mg/kg, sc; type: organism-based; conditions: dose 20-40 mg/kg
Listeria monocytogenes = assay: Antibacterial activity against clinically isolated Listeria monocytogenes CICC21662 assessed as inhibition of bacterial growth measured after 16 to 24 hrs by broth microdilution method; type: functional; conditions: time 16-24 hrs, read-out: MIC100
Staphylococcus aureus [35] = assay: Anti-biofilm activity against clinically isolated Staphylococcus aureus ATCC29213 assessed inhibition of biofilm formation at 2 ug/ml measured after 12 to 16 hrs incubation by crystal violet staining based analysis; type: functional; conditions: time 12-16 hrs

For `Cc1onc(-c2ccccc2)c1C(=O)N[C@@H]1C(=O)N2[C@@H]1SC(C)(C)[C@@H]2C(=O)O` [OXACILLIN], the Ratio (Staphylococcus aureus [1]) was 8.
For `CCN(CC)CCCCCCCCCCCCOc1ccc2ccc(=O)oc2c1`, the MIC (Staphylococcus aureus [2]) was 2 µg/mL (≈ 4.98 µM), the “inhibition (INH)” value (Staphylococcus aureus [3]) was 100% and the MIC (Enterococcus faecalis) was 4 µg/mL (≈ 9.96 µM). The Activity (Staphylococcus aureus [4]) was “Dose-dependent-effect”, the Activity [5] was “Non-toxic” and the Activity (RAW264.7) was “Active”. For the same compound, the survival [6] was 100%, the survival [7] was 100% and the Activity (Escherichia coli [8]) was “Active”. For the same compound, the Activity (Staphylococcus aureus [9]) was “Active”, the Activity [10] was “Non-toxic” and the Activity (Staphylococcus aureus [11]) was “Active”. For the same compound, the Activity [12] was “Toxic”, the MIC (Bacillus subtilis) was 1 µg/mL (≈ 2.49 µM) and the MIC (Escherichia coli [13]) was over 256 µg/mL. The Activity (Staphylococcus aureus [14]) was “Active”, the Activity [15] was “Non-toxic” and the Activity [16] was “Non-toxic”. For the same compound, the MIC (Staphylococcus aureus [17]) was 1 µg/mL (≈ 2.49 µM), the Activity [18] was “Non-toxic” and the survival [19] was 100%. For the same compound, the Activity [20] was “Non-toxic”, the Activity (Staphylococcus aureus [21]) was “Active” and the inhibition at 4 µg/mL (Staphylococcus aureus [22]) was 100%. The survival [23] was 100%, the MIC (Bacillus cereus) was 4 µg/mL (≈ 9.96 µM) and the Activity (Escherichia coli [24]) was “Dose-dependent-effect”. The Activity (Staphylococcus aureus [25]) was “Active”, the MIC (Escherichia coli [26]) was over 256 µg/mL and the Activity [27] was “Non-toxic”. The Activity [28] was “Non-toxic”, the Activity [29] was “Non-toxic” and the inhibition at 16 µg/mL (Escherichia coli [30]) was 100%. For the same compound, the inhibition at 8 µg/mL (Escherichia coli [31]) was 100%, the Activity (Staphylococcus aureus [32]) was “Active” and the survival [33] was 100%. For the same compound, the Activity [34] was “Toxic”, the MIC (Listeria monocytogenes) was 2 µg/mL (≈ 4.98 µM) and the inhibition at 2 µg/mL (Staphylococcus aureus [35]) was 100%.
